Measurements reported in US20110104274A1, “NOVEL COMPOSITION AND USES THEREOF, IN PARTICULAR COSMETIC USES, FOR TREATING SKIN DEHYDRATION” (COMPAGNIE GERVAIS DANONE, priority 2006, published 2011).
Blank lines part the entries; values can stand above or below the compound they belong to.

Key:
[1] = test system: transglutaminase K (TGK) expression in normal human keratinocytes (NHEKs); assay: Expression of transglutaminase K (TGK) in NHEKs (immunofluorescence related to number of nuclei); format: cell-based; settings: for Expression of TGK (average): related to negative control
Protocol: The GLA used is the product L2378 from the company SIGMA. The 4 main forms of catechins forming green tea polyphenol are mixed in the natural proportions: EGCG, EGC, ECG and EC (respective SIGMA references E4143, E3768, E3893 and E4018).
The range of concentration of GLA tested in vitro was from 1 to 4 μg/ml and that of GTP was from 0.3 to 0.7 μg/ml.
(§1) The tests are carried out on normal human keratinocytes (NHEKs) in a monolayer. The NHEKs are sown at 10^4/well in serum-free medium (SFM) without calcium, under conditions of temperature of 37° C., CO2 of 5% and relative humidity RH>95%. The NHEKs are incubated like this for 24 hours. The medium is then removed. Then the NHEKs are incubated for 48 hours in the presence of either: • SFM (serum-free medium) with addition of gamma-linolenic acid and green tea polyphenols at a concentration of 1.25, 2.5 or 3.75 μg/mL for GLA and at a concentration of 0.5 μg/ml for GTP; • SFM (serum-free medium) without calcium, which serves as negative control; • SFM (serum-free medium) with addition of calcium (1.50 mM), which serves as positive control.
The media are removed and a second incubation is carried out in the presence of the 3 types of media.
The culture medium is removed and then rinsing with PBS is carried out. The cells are then permeabilized and fixed with absolute methanol for 10 minutes at −20° C. Then drying and nonspecific saturation with a PBS-Tween20-milk proteins mixture are carried out, followed by rinsing with PBS. The NHEK cells are labelled with an anti-TGK monoclonal antibody (Reference: TEBU 0175003), then incubated for 1 hour at room temperature and rinsed with PBS.
Detection is carried out with a GAM-FITC conjugated secondary antibody (Reference: Life Technology A 11001) and the fluorescence is measured using software (Reference: NIKKON; LICIA Software).
The nuclei are labelled and counted by the Hoechst technique. First, the medium is removed and rinsing with PBS is carried out. Hoechst labelling (Reference: bis-benzimide Sigma B1155) is then used and incubation is carried out for 1 hour at ambient temperature. This is followed by rinsing with PBS, image acquisition and quantification of fluorescence.
The results are expressed in specific fluorescence of TGK, i.e. they are related to the number of nuclei so as to be independent of the variations in growth of the cells.
The average expression of TGK corresponds to measurement of the quantity of fluorescence referred to the number of nuclei after Hoechst labelling.

[2] = test system: normal human keratinocytes (NHEKs); assay: Cytotoxicity test (MTT) on NHEKs, TGK study; format: cell-based; settings: MTT labelling
Protocol: as §1
(§2) The cell viability of the NHEKs is evaluated after labelling with 3-[4,5-dimethylthiazol-2-yl]-2,5-diphenyltetrazolium bromide (MTT) (SIGMA).

[3] = test system: involucrin expression in normal human keratinocytes (NHEKs); assay: Expression of involucrin in NHEKs (ELISA); format: cell-based; settings: 0 to 10 μg/mL; NHEKs of groups 1 (abdominal) and 2 (breast); high or low calcium concentration; 48 hours
Protocol: The GLA used is the product L2378 from the company SIGMA.
(§3) The NHEKs of the two groups are incubated for 48 hours in the presence of a low ([…]) or a high ([…]) concentration of calcium, and in the presence of either: • SFM (serum-free medium) with addition of 0, 1, 3 and 10 μg/mL of gamma-linolenic acid and/or of green tea extracts, in which the concentration of green tea polyphenol is approximately 88 wt. %; • SFM (serum-free medium) with addition of calcium, which serves as positive control.

[4] = test system: normal human keratinocytes (NHEKs); assay: Cytotoxicity test (MTT) on NHEKs, involucrin study; format: cell-based; settings: up to 10 μg/mL, regardless of the calcium concentration
Protocol: as §3, §2

[5] = Bioavailability study: plasma/serum concentrations of catechins (EC, EGC, EGCG) after ingestion; format: in vivo, human; settings: ingestion of 45 mg of catechins
Protocol: This study evaluates the bioavailability of the combination of catechins with GLA, and in particular the bioavailability of this combination in a yoghurt containing probiotics (see Table 1).
To evaluate this bioavailability, the plasma concentrations of GLA and of catechins are monitored at different points in time after ingestion of products 1, 2, 3 or 4.
This study is a norm-centred, randomized, open study. It was carried out with 12 female volunteers (average age 30.8 years; body mass index (BMI) on average 21.4).
During each assessment visit (V2, V3, V4), the subjects consumed a product at random (among the 4 products). […]
[…] blood samples were taken in the 6 hours following ingestion of the product. The plasma concentration of the active ingredients was measured at 6 points in time (T0, T1 h, T2 h, T3 h, T4 h, T6 h) for measuring the plasma kinetics of GLA and the catechins. […]
The plasma concentrations of catechins and specifically of epicatechin (EC), epigallocatechin (EGC), and epigallocatechin gallate (EGCG) were determined by HPLC as described by Lee et al. (Lee M J, Prabhu S, Meng X, Li C, Yang C S. An improved method for the determination of green and black tea polyphenols in biomatrices by high-performance liquid chromatography with coulometric array detection. Anal. Biochem. 2000; 279: 164-9) and on the basis of the general knowledge of a person skilled in the art. […]

[6] = test system: promoter of involucrin; settings: high dose of 20 μg/mL; literature; cited from earlier work

expression/activation of TGK after treatment (conclusion in words) ([1]; at the concentrations tested (GLA 1.25 and 3.75 μg/mL; GTP 0.5 μg/mL; GLA 2.5 + GTP 0.5 μg/mL)): seems to be activated
SMILES: CCCCC/C=C\C/C=C\C/C=C\CCCCC(=O)O [GLA, gamma-linolenic acid]
Expression of TGK (average) ([1]; GLA 1.25 μg/mL): 250%
Expression of TGK (average) ([1]; GLA 3.75 μg/mL): 220%
maximum concentration without loss of viability of the NHEKs [2]: 5.00 µg/mL
expression of involucrin after treatment alone [3]: increased
toxicity to the NHEKs [4]: not toxic

SMILES: [Ca+2] [Ca++, calcium]
Expression of TGK (average) ([1]; positive control, calcium 1.5 mM): 1407%

concentration of the individual catechin in the serum [5]: 0.04 to 0.33 µmol
concentration of the individual catechin in the serum ([5]; mass units): 18 to 152 ng/mL
SMILES: O=C(O[C@@H]1Cc2c(O)cc(O)cc2O[C@@H]1c1cc(O)c(O)c(O)c1)c1cc(O)c(O)c(O)c1 [EGCG, epigallocatechin gallate]
effect on the promoter of involucrin [6]: activation
